In patent US4970199A, “Steroidal glycolipids as host resistance stimulators against viral infection” (priority 1989, dated 1990):
“Also recorded” adds a separate entry of the source.

How the values were obtained:
[1] = test system: Mycobacterium avium-intracellulare; conditions: human, in vivo; cited from earlier work
[2] = cited from earlier work
HIV [3] = conditions: cited from earlier work
[4] = test system: human immunodeficiency virus (HIV); conditions: cited from earlier work
[5] = test system: reverse transcriptase in several retroviruses; conditions: in vitro; cited from earlier work
HIV [6] = conditions: clinical trials; cited from earlier work
[7] = cited from earlier work; remark: listed apart in the source
Kaposi's sarcoma = conditions: in vivo; cited from earlier work
[8] = test system: Herpes Simplex Virus-1 (HSV1); test: Antiviral experiment in mice infected IP with Herpes Simplex Virus-1; assay type: in vivo, HSV1 (Schloser), in ICR mice
Method: An antiviral experiment was conducted to compare treatment with 6-(5-Cholesten-3β-yloxy)hexyl 1-thio-β-D-mannopyranoside (Example 2) in mice infected IP with Herpes Simplex Virus-1 (HSV1) immediately before (post treatment) or after 5 days of treatment (pretreatment).
Ten mice (ICR, 20 gm, mixed sexes) were pretreated by SC injection of a 0.1 mL suspension of test compound twice a day for 4 days. On day 5, the mice were injected IP with 0.5 mL solution of HSV1 (Schloser, 10-5). The post treatment group was infected with HSV1 prior to administration of test compound. Day of death from time of infection with HSV1 was recorded for each mouse and average day of death per treatment group was calculated.

Pseudomonas aeruginosa = test: Stimulation of host resistance: protection of cyclophosphamide-immunocompromised mice from Pseudomonas aeruginosa infection; assay type: in vivo, Pseudomonas aeruginosa (Immunotype 1), in CF1 female mice; conditions: Table 3, CY-treated mice, dose not printed in table (initial test dose 40 mg per kg)
Method: Groups of 15-20 CF1 female mice (Charles River Breeding, Cambridge, Mass.) weighing 22-28 gm were injected intraperitoneally (i.p.) with cyclophosphamide (Cytoxan; CY) at 250 mg per kg body weight. One to two hours later they were typically injected again with the test material by the route specified. Four days later, the mice were divided into groups of five, each of which were injected i.p. with a different dilution of a suspension of Pseudomonas aeruginosa (Immunotype 1). The number of survivors was determined periodically and an estimate was made of the number of CFU of Pseudomonas organisms necessary to cause 50% lethality by the cumulative method of L. J. Reed and H. Muench (Am. J. Hygiene 27 (1938) 493-497). A protective index (P.I.) was defined as the LD50 for the mice receiving cyclophosphamide and the test compound divided by the LD50 for the mice receiving cyclophosphamide alone. All control mice were injected with aqueous vehicle in the same route and schedule as the test animals.
MATERIALS. All compounds for dosing were suspended in a sterile medium referred to as "aqueous vehicle" which contains 0.9% sodium chloride, 0.5% carboxymethyl cellulose, 0.4% Tween 80, and 0.9% benzyl alcohol unless otherwise stated. Test materials were evaluated via subcutaneous (s.c.), i.p., intramuscular (i.m.), orally (p.o.). and intravenous (i.v.) routes of administration. […]

## CO[C@H]1/C=C/O[C@@]2(C)Oc3c(C)c(O)c4c(c3C2=O)C2=NC3(CCN(CC(C)C)CC3)NC2=C(NC(=O)/C(C)=C\C=C\[C@H](C)[C@H](O)[C@@H](C)[C@@H](O)[C@@H](C)[C@H](OC(C)=O)[C@@H]1C)C4=O [Ansamycin, rifabutin]
[1]
  efficacy in AIDS patients with opportunistic infection: some efficacy in treating AIDS patients with an opportunistic infection

## CC(C)(N1CC1C#N)N1CC1C(N)=O (stereo not drawn) [Azimexon]
[2]; early trial, disappeared when treatment ceased
  toxic effect: only toxic effect was mild hemolysis
HIV [3]; early trial, ARC and AIDS patients
  symptoms and immune function: improvements in symptoms and immune function in patients with ARC but not AIDS

## Cc1ccc(C(=O)Nc2ccc(S(=O)(=O)O)c3cc(S(=O)(=O)O)cc(S(=O)(=O)O)c23)cc1NC(=O)c1cccc(NC(=O)Nc2cccc(C(=O)Nc3cc(C(=O)Nc4ccc(S(=O)(=O)O)c5cc(S(=O)(=O)O)cc(S(=O)(=O)O)c45)ccc3C)c2)c1 [Suramin]
HIV [3]
  therapeutic benefit or clinical improvement in AIDS patients: little or no evidence of clinical improvement or immunologic recovery

## ammonium 21-tungsto-9-antimoniate [HPA-23]
[4]
  growth of HIV: some tendency to check the growth of HIV
HIV [3]
  therapeutic benefit or clinical improvement in AIDS patients: no therapeutic benefit has been documented in AIDS patients
[5]
  reverse transcriptase inhibition, several retroviruses: Inhibits reverse transcriptase in several retroviruses in vitro

## NC(=O)c1ncn([C@@H]2O[C@H](CO)[C@@H](O)[C@H]2O)n1 [Ribavirin, 1-β-D-ribofuranosyl-1,2,4-triazole-3-carboxamide]
[2]; in vivo
  safety profile: acceptable
  tolerability: well tolerated
HIV [3]; human, in vivo
  immune function in ARC or AIDS patients: improved immune function in AIDS patients
HIV [6]
  HIV reproduction / viral replication in patients: inhibited viral replication

## Cc1cn([C@H]2C[C@H](N=[N+]=[N-])[C@@H](CO)O2)c(=O)[nH]c1=O [AZT, 3'-azido-3'-deoxythymidine]
[2]; in vivo
  toxicity: some toxicity, with anemia and headaches
HIV [3]; human, in vivo
  prolonging lives of patients with AIDS or ARC: show promise in prolonging lives of patients with AIDS or AIDS-related complex (ARC)
[7]; in vivo
  half-life in the body: relatively short half-life in the body
[7]; oral
  oral absorption: Well absorbed orally

## CC(C)(S)[C@@H](N)C(=O)O [D-Penicillamine, 3-mercapto-D-valine]
HIV [6]
  HIV reproduction / viral replication in patients: Inhibits HIV reproduction in humans; also recorded: suppressed the virus

## α-Interferon
[4]
  growth of HIV: Checks the growth of HIV in vitro
Kaposi's sarcoma
  tumor regression in AIDS-related Kaposi's sarcoma: induced tumor regression in some AIDS-related Kaposi's sarcoma cases

## O=C(O)P(=O)(O)O [Foscarnet, trisodium phosphonoformate]
[2]; in vivo
  side effects: serious side effects

## CC(C)CCC[C@@H](C)[C@H]1CC[C@H]2[C@@H]3CC=C4C[C@@H](OCCCCCCS[C@@H]5O[C@H](CO)[C@@H](O)[C@H](O)[C@@H]5O)CC[C@]4(C)[C@H]3CC[C@]12C [Example 2, 6-(5-Cholesten-3β-yloxy)hexyl 1-thio-β-D-mannopyranoside]
[8]; 50 mg/kg twice a day for four days
  protection from fatal viral infection over placebo treated animals, by day of death: statistically enhanced protection from fatal viral infection over placebo treated animals
[8]; pretreatment vs post treatment
  protection of pretreated mice over the post treatment group: statistically enhanced protection over the post treatment group

## CC(=O)NC(C)C1CCC2C3CC=C4CC(OCCCCCCSC5OC(CO)C(O)C(O)C5O)CCC4(C)C3CCC12C [Example 11, 6-(20S-Acetamido-pregn-5-en-3β-yloxy)hexyl 1-thio-β-D-mannopyranoside]
Pseudomonas aeruginosa
  Protective Index (log): 3.0 log

## CC[C@H](/C=C/[C@@H](C)[C@H]1CC[C@H]2[C@@H]3CC=C4C[C@@H](OCCCCCCS[C@@H]5O[C@H](CO)[C@@H](O)[C@H](O)[C@@H]5O)CC[C@]4(C)[C@H]3CC[C@]12C)C(C)C [Example 6, 6-(Stigmasta-5,22-dien-3β-yloxy)hexyl 1-thio-β-D-mannopyranoside]
Pseudomonas aeruginosa
  Protective Index (log): 2.0 log

## CC(=O)Nc1ccc(C(=O)O)cc1.CC(=O)Nc1ccc(C(=O)O)cc1.CC(=O)Nc1ccc(C(=O)O)cc1.CC(O)CN(C)C.CC(O)CN(C)C.CC(O)CN(C)C.O=c1[nH]cnc2c1ncn2[C@@H]1O[C@H](CO)[C@@H](O)[C@H]1O [Inosine pranobex]
HIV [3]; human, in vivo
  immune function in ARC or AIDS patients: improve immune function in ARC patients
